Test results reported in PMC6715182, “Helicobacter pylori senses bleach (HOCl) as a chemoattractant using a cytosolic chemoreceptor” (PLoS Biology, 2019).

Biological target: T1, DgcZ (Escherichia coli, UniProt P31129)
T1 construct: CZB domain (DgcZ-CZB, strain K12)
Assay: cysteine sulfenic acid formation on purified domain, dimedone trapping and immunoblot
Format: binding

T1 sequence (P31129 2-127): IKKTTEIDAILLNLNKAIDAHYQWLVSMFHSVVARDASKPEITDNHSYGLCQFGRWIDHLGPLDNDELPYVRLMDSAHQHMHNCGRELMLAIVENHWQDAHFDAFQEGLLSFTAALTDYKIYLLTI

Structure (SMILES): OCl [HOCl]
- cysteine sulfenic acid formation on purified domain, dimedone trapping and immun: We found them to be similarly reactive toward HOCl as TlpD
